In patent publication US20080287384A1, “Methods of Identifying Agents Having Antiangiogenic Activity” (priority 2005, published 2008):

Assays:
[1] = test system: HMVECs; assay: Endothelial cell migration assay (modified Boyden chamber); assay type: cell-based, human
Method: Endothelial Cell Migration Assay-The endothelial cell migration assay was performed as described in, […], Methods Mol Med. 78: 337-47 (2003), incorporated herein by reference. Briefly, HMVECs were starved overnight in media containing 0.1% bovine serum albumin (BSA), harvested, resuspended in DME with 0.1% BSA, plated on the bottom side of a modified Boyden chamber (Nucleopore Corporation, MD), and allowed to attach in the inverted chamber for 2 hours at 37° C. The chamber was then re-inverted, test substances added to the wells of the upper chamber and cells were allowed to migrate for four hours at 37° C. Membranes were recovered, fixed and stained and the number of cells that had migrated to the upper chamber per ten high power fields was counted. Background migration in DME+0.1% BSA was subtracted and the data reported as the number of cells migrated per 10 high power fields (400×). VEGF (R&D Systems, Minneapolis, Minn.) was used as a positive control at a concentration of 100 pg/ml.

[2] = test system: endothelial cells; conditions: 0.3 mM, low serum conditions, data not shown
[3] = test system: HMVECs in scaffolds implanted in SCID mice; assay: SCID mouse model of human angiogenesis, in vivo microvessel density; conditions: daily local injection for 5 days
Description: A further assay for evaluating inhibition of tubule formation suitable for use in the presently described methods is an in vivo assay of microvessel density. In this regard, functional human microvessels can be engineered in SCID mice by implanting human dermal microvascular endothelial cells (HMVECs) seeded in biodegradable scaffolds, as described by Nor J E, et al., Lab Invest 81: 453-63 (2001), incorporated herein by reference. These cells organize into microvessels that anastomose with the host vasculature and transport mouse blood cells. Differences in vessel density are quantified post-euthanization by standard immunohistochemical techniques using, for example, anti-human CD31, and counting the number of CD31-positive vessels in a set number of random fields.
SCID Mouse Model of Human Angiogenesis—Functional human microvessels were induced in severe combined immunodeficient (SCID) mice (CB-17 SCID; Taconic, Germantown, N.Y., USA). […]
Determination of In Vivo Microvessel Densities—Formalin fixed, paraffin-embedded implants were generated in order to quantify differences in vessel densities in the tumors of the treated and untreated animals. […] The number of CD31+blood vessels was counted in 10 random fields per sponge using an optical microscope (×400).

[4] = test system: mouse cornea
Method: The effect of 8CPT-2Me-cAMP treatment on FGF-induced angiogenesis was investigated using the mouse corneal assay. Mice were injected with either 0.6 or 6 μmoles of 8CPT-2Me-cAMP, concentrations similar to those used for the skin implant scaffolds.

[5] = test system: age-related macular degeneration; conditions: 1-2 drops of 0.1% w/v aqueous ophthalmic composition, each eye twice daily
Description: A patient complaining of vision loss is diagnosed with age-related macular degeneration.

[6] = test system: Rap1; assay type: cell-based, human; conditions: HMVECs
Method: Briefly, cells are lysed in a suitable lysis buffer and clarified by centrifugation. Clarified lysates are incubated with a GST fusion protein containing the Rap-1 binding domain of Ral-GDS coupled to glutathione-sepharose beads. Proteins bound to the beads are then extracted and resolved by sodium dodecyl sulfate-polyacrylamide gel electrophoresis (SDS-PAGE) and subjected to western blot analysis using anti-Rap-1 antibodies.
Rap1 pull down assay—HMVECs were grown to subconfluent in 100 mm plates, starved in EBM2 medium plus 0.1% BSA over night and treated as indicated.

[7] = test system: HMVECs; assay: Cell morphology / actin stress fiber staining; assay type: cell-based, human; conditions: treated or lentivirus-transduced
[8] = test system: CREB, a substrate of PKA; assay: Phospho-CREB western analysis; conditions: HMVEC lysates; forskolin given with IBMX per FIG. 5B legend
Description: Cell lysate extraction and western analysis—Cell lysates were collected, resolved by SDS-PAGE, and analyzed by western blot using anti-Phospho-CREB (Ser133) antibody or anti-tubulin antibody at a dilution of 1:1000 or anti-Rap1 at a dilution of 1:500, using standard methods as described in Kuo, W L et al., J. Biol. Chem. 279: 23073-81 (2004), incorporated herein by reference.

Compound	effect on VEGF-induced chemotaxis [1]	concentration giving complete inhibition of VEGF-stimulated migration [1]	migration in the absence of VEGF (nonspecific/background migration) ([1]; no VEGF)	apoptotic induction [2]	inhibition of number of microvessels ([3]; 0.03 μmoles per implant)	inhibition of number of microvessels ([3]; 0.3 μmoles per implant)	average area of vascularization relative to control mice ([4]; 0.6 μmoles)	mice with detectable vascularization ([4]; 0.6 μmoles, control 6 out of 6)	FGF-induced angiogenesis ([4]; 6 μmoles (higher dose))	mice showing angiogenesis ([4]; 6 μmoles, control 6 out of 6)	ocular function [5]	Rap1 activation (GTP-bound Rap1) [6]	cell morphology [7]	CREB phosphorylation [8]
O=C(Nc1ncnc2c1ncn2[C@@H]1O[C@@H]2COP(=O)(O)O[C@H]2[C@H]1O)c1ccccc1 [6-Benz-cAMP, N^6-Benzoyladenosine-3′,5′cyclic monophosphate]	no effect													
CO[C@@H]1[C@@H]2OP(=O)(O)OC[C@H]2O[C@H]1n1c(Sc2ccc(Cl)cc2)nc2c(N)ncnc21 [8CPT-2Me-cAMP, 8-(4-chlorophenylthio)-2′-O-methyladenosine-3′,5′cyclic monophosophate]		2.5 µM	no suppression	did not detect apoptotic induction	roughly 50%	greater than 90%	about half	6 out of 8	effectively suppressed	1 out of 10	noticeable improvement	robust stimulator	this effect could be mimicked	did not induce significant CREB phosphorylation
C[C@@H](N)[C@H]1CC[C@H](C(=O)Nc2ccncc2)CC1 [Y-27632]	dose-dependent inhibition													
